Reference: ChEMBL document CHEMBL6103540, “Recent Progress and Future Perspectives on Anti-Hyperuricemic Agents” (J Med Chem, 2024)

What was measured:
[1] = biological target: T1, Xanthine dehydrogenase/oxidase (Homo sapiens, UniProt P47989); assay: Inhibition of XOR (unknown origin)
[2] = biological target: T2, Solute carrier family 22 member 12 (Homo sapiens, UniProt Q96S37); assay: Inhibition of human URAT1 expressed in HEK293T cells by assessed as 14C-uric acid uptake preincubated for 5 mins followed by 14C-uric acid addition and measured after 10 mins by liquid scintillation counting method; format: cell-based
T2 sequence (Q96S37 whole entry): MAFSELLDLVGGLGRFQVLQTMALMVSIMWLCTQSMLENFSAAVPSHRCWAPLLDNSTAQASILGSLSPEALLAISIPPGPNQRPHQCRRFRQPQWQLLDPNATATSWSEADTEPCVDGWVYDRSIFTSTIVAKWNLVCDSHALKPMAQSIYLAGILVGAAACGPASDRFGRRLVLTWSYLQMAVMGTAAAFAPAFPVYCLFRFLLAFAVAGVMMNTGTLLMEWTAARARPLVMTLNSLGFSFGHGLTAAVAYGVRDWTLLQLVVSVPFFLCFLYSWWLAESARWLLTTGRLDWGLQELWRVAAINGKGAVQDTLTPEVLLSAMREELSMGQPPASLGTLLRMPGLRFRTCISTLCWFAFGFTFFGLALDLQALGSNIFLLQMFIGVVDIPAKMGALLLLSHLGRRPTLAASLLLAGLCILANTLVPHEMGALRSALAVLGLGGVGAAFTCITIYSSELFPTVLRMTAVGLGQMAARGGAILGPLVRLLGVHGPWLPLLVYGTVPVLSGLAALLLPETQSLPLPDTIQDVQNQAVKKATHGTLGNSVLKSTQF

[3] = biological target: T2, Solute carrier family 22 member 12; assay: Inhibition of URAT1 (unknown origin)
[4] = biological target: T1, Xanthine dehydrogenase/oxidase; assay: Inhibition of Xanthine oxidase (unknown origin)
[5] = biological target: T2, Solute carrier family 22 member 12; assay: Inhibition of human URAT1 stably expressed in HEK293 cells by measuring 14C-uric acid uptake pre-incubated for 15 mins followed by 14C-uric acid addition and measured for 30 mins by liquid scintillation counter analysis; format: cell-based
[6] = biological target: T2, Solute carrier family 22 member 12; assay: Inhibition of human URAT1 stably expressed in HEK293T cells; format: cell-based
[7] = biological target: T2, Solute carrier family 22 member 12; assay: Inhibition of URAT1 (unknown origin) expressed in human HK-2 cells at 10 uM relative to control; format: cell-based; conditions: HK-2, human
[8] = biological target: T1, Xanthine dehydrogenase/oxidase; assay: Inhibition of xanthine oxidase (unknown origin) by absorbance based assay
[9] = biological target: T3, Solute carrier family 2, facilitated glucose transporter member 9 (Homo sapiens, UniProt Q9NRM0); assay: Inhibition of GLUT9 (unknown origin)
T3 sequence (Q9NRM0 whole entry): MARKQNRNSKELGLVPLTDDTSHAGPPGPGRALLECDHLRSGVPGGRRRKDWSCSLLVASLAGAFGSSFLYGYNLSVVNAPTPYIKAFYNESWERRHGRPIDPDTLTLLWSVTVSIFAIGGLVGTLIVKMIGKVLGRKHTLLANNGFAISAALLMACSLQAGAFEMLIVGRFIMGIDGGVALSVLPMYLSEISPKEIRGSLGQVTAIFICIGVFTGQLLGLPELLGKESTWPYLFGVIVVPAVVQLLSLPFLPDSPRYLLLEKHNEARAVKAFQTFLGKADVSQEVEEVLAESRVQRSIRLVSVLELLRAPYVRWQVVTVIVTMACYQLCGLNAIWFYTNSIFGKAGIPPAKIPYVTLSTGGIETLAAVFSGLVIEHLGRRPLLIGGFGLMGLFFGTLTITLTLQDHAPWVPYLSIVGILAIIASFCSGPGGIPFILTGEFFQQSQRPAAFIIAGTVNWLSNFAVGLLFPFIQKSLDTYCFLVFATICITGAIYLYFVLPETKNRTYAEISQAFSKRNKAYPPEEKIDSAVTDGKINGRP

T1 sequence (P47989 whole entry): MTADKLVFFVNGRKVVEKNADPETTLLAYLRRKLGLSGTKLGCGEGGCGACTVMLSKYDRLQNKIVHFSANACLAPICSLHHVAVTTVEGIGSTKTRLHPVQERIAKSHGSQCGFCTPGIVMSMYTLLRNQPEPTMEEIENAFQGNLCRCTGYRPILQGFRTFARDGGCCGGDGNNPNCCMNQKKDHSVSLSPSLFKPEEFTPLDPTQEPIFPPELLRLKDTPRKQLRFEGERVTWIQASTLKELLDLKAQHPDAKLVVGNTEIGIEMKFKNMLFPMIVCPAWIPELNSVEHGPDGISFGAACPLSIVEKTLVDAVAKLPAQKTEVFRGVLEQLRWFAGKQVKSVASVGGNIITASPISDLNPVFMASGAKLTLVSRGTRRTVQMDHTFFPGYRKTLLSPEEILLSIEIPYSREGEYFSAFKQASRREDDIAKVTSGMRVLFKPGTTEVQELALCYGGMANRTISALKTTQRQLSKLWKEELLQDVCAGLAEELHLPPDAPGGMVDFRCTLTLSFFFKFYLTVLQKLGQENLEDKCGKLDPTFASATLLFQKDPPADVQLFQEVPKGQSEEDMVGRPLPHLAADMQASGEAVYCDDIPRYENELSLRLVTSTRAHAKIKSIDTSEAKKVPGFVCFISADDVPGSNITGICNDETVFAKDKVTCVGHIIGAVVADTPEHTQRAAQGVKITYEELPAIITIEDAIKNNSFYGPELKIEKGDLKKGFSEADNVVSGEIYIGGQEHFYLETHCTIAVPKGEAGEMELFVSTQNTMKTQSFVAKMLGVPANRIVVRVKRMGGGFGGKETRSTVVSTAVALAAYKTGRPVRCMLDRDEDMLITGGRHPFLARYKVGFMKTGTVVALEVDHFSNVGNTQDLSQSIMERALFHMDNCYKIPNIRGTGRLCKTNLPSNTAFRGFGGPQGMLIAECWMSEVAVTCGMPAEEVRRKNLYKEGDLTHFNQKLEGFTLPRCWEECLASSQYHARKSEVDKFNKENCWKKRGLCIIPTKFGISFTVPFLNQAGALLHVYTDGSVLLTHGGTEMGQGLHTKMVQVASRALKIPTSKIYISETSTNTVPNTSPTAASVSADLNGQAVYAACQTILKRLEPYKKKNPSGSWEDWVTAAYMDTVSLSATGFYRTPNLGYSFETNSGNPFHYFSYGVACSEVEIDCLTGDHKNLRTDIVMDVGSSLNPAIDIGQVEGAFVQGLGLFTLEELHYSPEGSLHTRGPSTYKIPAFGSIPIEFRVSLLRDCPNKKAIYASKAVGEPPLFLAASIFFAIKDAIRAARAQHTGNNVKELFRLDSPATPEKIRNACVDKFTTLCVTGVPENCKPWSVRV

Row | SMILES | IC50 [3] [nM] | IC50 [4] [nM] | other results
1 | O=C(/C=C/c1ccc(O)c2oc(-c3ccc(O)c(O)c3)cc12)O[C@H](Cc1ccc(O)c(O)c1)C(=O)O | – | – | IC50 [1]: 9700 nM
2 | O=C(O)C1(Sc2ccccc2N2CCOc3ccc(Br)cc32)CCC1 | – | – | IC50 [2]: 1690 nM
3 | CCCc1ccc(Cn2c(Br)nnc2SCC(=O)O)c2ccccc12 | – | – | IC50 [5]: 92 nM
4 | N#Cc1cc(-n2cnc(C(=O)O)c2)ccc1N1CCCCCC1 | – | – | IC50 [6]: 10800 nM
5 | COc1cc2c3c(c1OS(=O)(=O)c1ccc(F)cc1)-c1ccccc1C[C@H]3N(C)CC2 | – | – | inhibition at 10 µM [7]: 61%
6 | COc1ccc(C2CC(=O)c3c(O)cc(O)cc3O2)cc1O (configuration not stated) | – | – | IC50 [8]: 840 nM
7 | Cc1nc(-c2ccc(OCC(C)C)c(C#N)c2)sc1C(=O)O [FEBUXOSTAT] | – | 10 | –
8 | CC(C)=CCc1c(O)ccc2c1O[C@H](c1ccc(O)cc1)CC2=O [ISOBAVACHIN] | 240 | 14400 | IC50 [9]: 1120 nM
9 | O=C(O)C1(Sc2ccnc3ccc(Br)cc23)CCC1 [SHR-4640] | 53 | – | –
10 | N#Cc1cc(-c2n[nH]c(-c3ccncc3)n2)ccn1 [TOPIROXOSTAT] | – | – | IC50 [1]: 15 nM

Continued, in another order:

Row | IC50 [3] [nM] | IC50 [4] [nM] | SMILES | other results
11 | 145 | 3330 | O/N=C(\Cc1ccc(Br)cc1)c1ccc(O)cc1O | –
12 | 30200 | 12 | CCn1c(=O)sc2cc(-c3ccc(C(=O)O)c(O)c3)ccc21 | –
13 | – | 3300 | O=c1c2cc(O)c(O)cc2oc2cc(OCc3ccccc3)cc(O)c12 | –
